Laboratory results reported in patent US10654816B2, “Compounds and compositions for treating conditions associated with NLRP activity” (NOVARTIS INFLAMMASOME RESEARCH, INC., priority 2017, dated 2020).

tested on: IL-1β production in PMA-differentiated THP-1 cells; assay: IL-1β production in PMA-differentiated THP-1 cells stimulated with gramicidin (hTHP-1 assay, HTRF readout; Procedures 1-3); type: cell-based, human; settings: Homo sapiens, THP-1, hTHP-1 assay containing 2% fetal bovine serum; average; class symbols; read-out: hTHP-1 IC50 (Average IC50 of compounds in hTHP-1 assay)
Procedure: The Following Protocol is Suitable for Testing the Activity of the Compounds Disclosed Herein. Procedure 1: IL-1B Production in PMA-Differentiated THP-1 Cells Stimulated with Gramicidin.
THP-1 cells were purchased from the American Type Culture Collection and sub-cultured according to instructions from the supplier. Cells were cultured in complete RPMI 1640 (containing 10% heat inactivated FBS, penicillin (100 units/ml) and streptomycin (100 μg/ml)), and maintained in log phase prior to experimental setup. Prior to the experiment, compounds were dissolved in dimethyl sulfoxide (DMSO) to generate a 30 mM stock. The compound stock was first pre-diluted in DMSO to 3, 0.34, 0.042 and 0.0083 mM intermediate concentrations and subsequently spotted using Echo550 liquid handler into an empty 384-well assay plate to achieve desired final concentration (e.g. 100, 33, 11, 3.7, 1.2, 0.41, 0.14, 0.046, 0.015, 0.0051, 0.0017 μM). DMSO was backfilled in the plate to achieve a final DMSO assay concentration of 0.37%. The plate was then sealed and stored at room temperature until required.
THP-1 cells were treated with PMA (Phorbol 12-myristate 13-acetate) (20 ng/ml) for 16-18 hours. On the day of the experiment the media was removed and adherent cells were detached with trypsin for 5 minutes. Cells were then harvested, washed with complete RPMI 1640, spun down, and resuspended in RPMI 1640 (containing 2% heat inactivated FBS, penicillin (100 units/ml) and streptomycin (100 μg/ml). The cells were plated in the 384-well assay plate containing the spotted compounds at a density of 50,000 cells/well (final assay volume 50 μl). Cells were incubated with compounds for 1 hour and then stimulated with gramicidin (5 μM) (Enzo) for 2 hours. Plates were then centrifuged at 340 g for 5 min. Cell free supernatant (40 μL) was collected using a 96-channel PlateMaster (Gilson) and the production of IL-1β was evaluated by HTRF (cisbio). The plates were incubated for 18 h at 4° C. and read using the preset HTRF program (donor emission at 620 nm, acceptor emission at 668 nm) of the SpectraMax i3x spectrophotometer (Molecular Devices, software SoftMax 6). A vehicle only control and a dose titration of CRID3 (100-0.0017 μM) were run concurrently with each experiment.
Procedure 2: IL-1β Production in PMA-Differentiated THP-1 Cells Stimulated with Gramicidin.
THP-1 cells were purchased from the American Type Culture Collection and sub-cultured according to instructions from the supplier. Prior to experiments, cells were cultured in complete RPMI 1640 (containing 10% heat inactivated FBS, penicillin (100 units/ml) and streptomycin (100 μg/ml)), and maintained in log phase prior to experimental setup. Prior to the experiment THP-1 were treated with PMA (Phorbol 12-myristate 13-acetate) (20 ng/ml) for 16-18 hours. Compounds were dissolved in dimethyl sulfoxide (DMSO) to generate a 30 mM stock.
On the day of the experiment the media was removed and adherent cells were detached with trypsin for 5 minutes. Cells were then harvested, washed with complete RPMI 1640, spun down, resuspended in RPMI 1640 (containing 2% heat inactivated FBS, penicillin (100 units/ml) and streptomycin (100 μg/ml). The cells were plated in a 384-well plate at a density of 50,000 cells/well (final assay volume 50 μl). Compounds were first dissolved in assay medium to obtain a 5× top concentration of 500 μM. 10 step dilutions (1:3) were then undertaken in assay medium containing 1.67% DMSO. 5× compound solutions were added to the culture medium to achieve desired final concentration (e.g. 100, 33, 11, 3.7, 1.2, 0.41, 0.14, 0.046, 0.015, 0.0051, 0.0017 μM). Final DMSO concentration was at 0.37%. Cells were incubated with compounds for 1 hour and then stimulated with gramicidin (5 μM) (Enzo) for 2 hours. Plates were then centrifuged at 340 g for 5 min. Cell free supernatant (40 μL) was collected using a 96-channel PlateMaster (Gilson) and the production of IL-1β was evaluated by HTRF (cisbio). […]

Compound | IC50 [µM]
Cc1oc([S@](N)(=O)=NC(=O)Nc2c3c(cc4c2CCC4)CCC3)cc1C(C)(C)O (single isomer, unassigned) [Example 3] | 0.2 to 1
Cc1cc(C(C)(C)O)sc1S(N)(=O)=NC(=O)Nc1c(C(C)C)cc(OC(F)F)cc1C(C)C (single isomer, unassigned) [Example 109, (S)- or (R)-N′-(4-(difluoromethoxy)-2,6-diisopropylphenylcarbamoyl)-5-(2-hydroxypropan-2-yl)-3-methylthiophene-2-sulfonimidamide] | 0.2 to 1
Cc1cc(C(C)(C)O)ccc1S(N)(=O)=NC(=O)Nc1c(C(C)C)cc(OC(F)F)cc1C1CC1 (single isomer, unassigned) [Example 119, (S)- or (R)-N′-(2-cyclopropyl-4-(difluoromethoxy)-6-isopropylphenylcarbamoyl)-4-(2-hydroxypropan-2-yl)-2-methylbenzenesulfonimidamide] | 5 to 30
CC(C)c1cc(OC(F)F)cc(C2CC2)c1NC(=O)N=S(N)(=O)c1ccc(C(C)(C)O)cc1F (single isomer, unassigned) [Example 166, (S)- or (R)-N′-((2-cyclopropyl-4-(difluoromethoxy)-6-isopropylphoxyproyl)-2-fluoro-4-(2-hydroxypropan-2-yl)benzenesulfonimidamide] | 0.2 to 1
CC(C)(O)c1ccc(F)c(S(N)(=O)=NC(=O)Nc2c3c(c(F)c4c2CCC4)CCC3)c1 (single isomer, unassigned) [Example 168, (S)- or (R)-2-fluoro-N′-((8-fluoro-1,2,3,5,6,7-hexahydro-s-indacen-4-yl)carbamoyl)-5-(2-hydroxypropan-2-yl)benzenesulfonimidamide] | 0.2 to 1
CC(C)c1cc(C#N)cc(C(C)C)c1NC(=O)N=S(N)(=O)c1sc(C(C)(C)O)nc1CO (single isomer, unassigned) [Example 192, (S)- or (R)-N′-((4-cyano-2,6-diisopropylphenyl)carbamoyl)-4-(hydroxymethyl)-2-(2-hydroxypropan-2-yl)thiazole-5-sulfonimidamide] | 0.2 to 1

Now from value to compound:

IC50 [µM] | Compound
1 to 5 | CC(C)c1cc(F)cc(C(C)C)c1NC(=O)N=S(N)(=O)c1ccc(C(C)(C)O)cc1 (single isomer, unassigned) [Example 83, (S)- or (R)-N′-(4-fluoro-2,6-diisopropylphenylcarbamoyl)-4-(2-hydroxypropan-2-yl)benzenesulfonimidamide]
1 to 5 | CC(C)c1cc(F)cc(C(C)C)c1NC(=O)N=S(N)(=O)c1ccc(CN(C)C)cc1 (single isomer, unassigned) [Example 132, (S)- or (R)-4-((dimethylamino)-methyl)-N′-(4-fluoro-2,6-diisopropylphenylcarbamoyl)-benzenesulfonimidamide]
1 to 5 | CC(C)c1cc(OC(F)F)cc(C2CC2)c1NC(=O)N=S(N)(=O)c1ccc(CN(C)C)cc1 (single isomer, unassigned) [Example 135, (R)- or (S)-N′-(2-cyclopropyl-4-(difluoromethoxy)-6-isopropylphenylcarbamoyl)-4-((dimethylamino)methyl)benzenesulfonimidamide]
5 to 30 | CC(C)c1cc(F)cc(C(C)C)c1NC(=O)N=S(N)(=O)c1ccc(S(C)(=O)=O)cc1 (single isomer, unassigned) [Example 145, (R)- or (S)-N′-(4-fluoro-2,6-diisopropylphenylcarbamoyl)-4-(methylsulfonyl)-benzenesulfonimidamide]
1 to 5 | CC(C)c1cc(C#N)cc(C(C)C)c1NC(=O)N=S(N)(=O)c1ccc(C(C)(C)O)c(CO)c1 (single isomer, unassigned) [Example 188, (S)- or (R)-N′-((4-cyano-2,6-diisopropylphenyl)carbamoyl)-3-(hydroxymethyl)-4-(2-hydroxypropan-2-yl)benzenesulfonimidamide]

same assay, conditions: Homo sapiens, THP-1, hTHP-1 assay containing 2% fetal bovine serum; average; given as bound; read-out: hTHP-1 IC50 (Average IC50 of compounds in hTHP-1 assay)

Compound | IC50 [µM]
Cc1cc(C(C)(C)O)sc1S(N)(=O)=NC(=O)Nc1c(C(C)C)cc(OC(F)F)cc1C(C)C (single isomer, unassigned) [Example 110, (R)- or (S)-N′-(4-(difluoromethoxy)-2,6-diisopropylphenylcarbamoyl)-5-(2-hydroxypropan-2-yl)-3-methylthiophene-2-sulfonimidamide] | > 30
Cc1cc(C(C)(C)O)ccc1S(N)(=O)=NC(=O)Nc1c(C(C)C)cc(OC(F)F)cc1C1CC1 (single isomer, unassigned) [Example 120, (R)- or (S)-N′-(2-cyclopropyl-4-(difluoromethoxy)-6-isopropylphenylcar-bamoyl)-4-(2-hydroxypropan-2-yl)-2-methylbenzenesulfonimidamidc] | > 30

Further lines, results first:

IC50 [µM] | Compound
> 30 | CC(C)c1cc(F)cc(C(C)C)c1NC(=O)N=S(N)(=O)c1ccc(C(C)(C)O)cc1 (single isomer, unassigned) [Example 84, (R)- or (S)-N′-(4-fluoro-2,6-diisopropylphenylcarbamoyl)-4-(2-hydroxypropan-2-yl)benzenesulfonimidamide]
> 30 | CC(C)c1cc(F)cc(C(C)C)c1NC(=O)N=S(N)(=O)c1ccc(CN(C)C)cc1 (single isomer, unassigned) [Example 133, (R)- or (S)-4-((dimethylamino)methyl)-N′-(4-fluoro-2,6-diisopropylphenyl-carbamoyl)benzenesulfonimidamide]
> 30 | CC(C)c1cc(OC(F)F)cc(C2CC2)c1NC(=O)N=S(N)(=O)c1ccc(CN(C)C)cc1 (single isomer, unassigned) [Example 134, (S)- or (R)-N′-(2-cyclopropyl-4-(difluoromethoxy)-6-isopropylphenylcarbamoyl)-4-((dimethylamino)methyl)benzenesulfonimidamide]
> 30 | CC(C)c1cc(F)cc(C(C)C)c1NC(=O)N=S(N)(=O)c1ccc(S(C)(=O)=O)cc1 (single isomer, unassigned) [Example 144, (S)- or (R)-N′-(4-fluoro-2,6-diisopropylphenylcarbamoyl)-4-(methylsulfonyl)-benzenesulfonimidamide]
> 30 | CC(C)c1cc(C#N)cc(C(C)C)c1NC(=O)N=S(N)(=O)c1ccc(C(C)(C)O)c(CO)c1 (single isomer, unassigned) [Example 189, (R)- or (S)-N′-((4-cyano-2,6-diisopropylphoxyproyl)-3-(hydroxymethyl)-4-(2-hydroxypropan-2-yl)benzenesulfonimidamide]

same assay, conditions: Homo sapiens, THP-1, hTHP-1 assay containing 2% fetal bovine serum; average; numeric bound printed without unit; read-out: hTHP-1 IC50 (Average IC50 of compounds in hTHP-1 assay)

IC50 [µM] | Compound
> 11.2 | CC(C)c1cc(OC(F)F)cc(C2CC2)c1NC(=O)N=S(N)(=O)c1ccc(C(C)(C)O)cc1F (single isomer, unassigned) [Example 167, (R)- or (S)-N′-((2-cyclopropyl-4-(difluoromethoxy)-6-isopropylphenyl)carbamoyl)-2-fluoro-4-(2-hydroxypropan-2-yl)benzenesulfonimidamide]
> 5.59 | CC(C)(O)c1ccc(F)c(S(N)(=O)=NC(=O)Nc2c3c(c(F)c4c2CCC4)CCC3)c1 (single isomer, unassigned) [Example 169, (S)- or (R)-2-fluoro-N′-((8-fluoro-1,2,3,5,6,7-hexahydro-s-indacen-4-yl)carbamoyl)-5-(2-hydroxypropan-2-yl)benzenesulfonimidamide]
